1 compound from patent US5877202A, “Indole derivatives useful to treat estrogen-related neoplasms and disorders” (priority 1996, dated 1999) can be followed below.

The test system of assay [1] is MCF-7 human breast tumor cells. Briefly: Inhibition of growth of MCF-7 human breast tumor cells. The assay is classed as cell-based. The note with it: MCF7, MCF-7 cells, medium with 0.001 mg/ml insulin.
The target of assay [2] is T1, estrogen receptor binding to an estrogen response element (Homo sapiens, UniProt P03372).
T1 construct: estrogen receptor extracted from MCF-7 human breast tumor cells; endogenous in cells; host or cells: MCF-7 human breast cancer cells (nuclear extract, cytosol or whole cell extract)
T1 sequence (P03372 1-595): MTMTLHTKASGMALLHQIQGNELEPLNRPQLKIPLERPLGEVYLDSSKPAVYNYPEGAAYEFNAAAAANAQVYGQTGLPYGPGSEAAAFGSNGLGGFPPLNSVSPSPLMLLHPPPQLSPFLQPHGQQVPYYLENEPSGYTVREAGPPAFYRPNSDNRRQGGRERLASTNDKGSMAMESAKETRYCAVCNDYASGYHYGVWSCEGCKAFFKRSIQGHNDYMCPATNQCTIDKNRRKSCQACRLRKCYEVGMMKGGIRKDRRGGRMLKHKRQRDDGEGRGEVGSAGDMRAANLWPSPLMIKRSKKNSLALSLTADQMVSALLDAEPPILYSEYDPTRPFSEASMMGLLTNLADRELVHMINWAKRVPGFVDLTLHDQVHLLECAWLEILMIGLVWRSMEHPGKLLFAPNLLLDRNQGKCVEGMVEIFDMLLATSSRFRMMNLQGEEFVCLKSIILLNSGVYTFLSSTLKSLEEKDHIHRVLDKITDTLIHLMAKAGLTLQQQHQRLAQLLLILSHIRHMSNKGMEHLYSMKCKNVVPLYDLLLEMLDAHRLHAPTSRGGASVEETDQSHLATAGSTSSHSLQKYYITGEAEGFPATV
Kind of assay: Inhibition of estrogen receptor binding to an estrogen response element in DNA mobility shift assays. The assay is classed as biochemical, human (nuclear extract of MCF-7 human breast cancer cells). The procedure:
(§1) Monolayers of MCF-7 human breast cancer cells are rinsed once with HBSS and scraped off culture dishes into 15 ml conical tubes with 5 ml HBSS. The cells are sedimented by centrifugation at 250×g for five minutes, suspended in 1 ml HBSS and sedimented by centrifugation at 2000 rpm in a tabletop centrifuge for five minutes in a 1.5 ml microfuge tube. Two PCV of a solution of a lysis buffer (25 mM HEPES, pH 7.8, 50 mM KCl, 0.5% Nonidet P 40, 2 mM dithiothreitol, 0.2 mM phenylmethylsulfonyl fluoride, 0.05 mg/ml leupeptin, 0.05 mg/ml aprotinin, 0.0025 mg/ml pepstatin, 0.005 mg/ml antipain) are added and cells are kept on ice for 15 minutes. Lysed cells are centrifuged for 3 minutes at 10,000×g, supernatant decanted, and kept as the cytosol fraction. Pellets are suspended in two PCV of extraction buffer (25 mM HEPES, pH 7.8, 500 mM KCl, 10% glycerol, 2 mM dithiothreitol and the above protease inhibitors), mixed for 20 minutes by inversion at 4 degrees C. and centrifuged at 10,000×g for 20 minutes. The supernatant is decanted and saved as nuclear extract. Both the nuclear extract and the cytosol are dialyzed for two hours against dialysis buffer (25 mM HEPES, pH 7.8, 50 mM KCl, 10% glycerol, 2 mM dithiothreitol and the above protease inhibitors). Nuclear and cytosol fractions are stored frozen at -80 degrees C. until used for mobility shift assays or determination of estrogen receptor content.
Briefly, to each reaction tube was added 0.01 mg nuclear extract, 2 μg poly dIdC, 50 mM NaCl, 1 mM dithiothreitol and 10 mM Tris, pH 7.5 in a total volume of 0.01 ml and the mixture was kept at room temperature for 10 minutes. A ^32 P-labelled estrogen response element [ERE]

For assay [3], the system named is MCF-7 human breast tumor cells. Kind of assay: Clonigenic assay for MCF-7 human breast tumor cells. It is filed as cell-based. The note with it: for Colonies ± S.D.: 24 hours treatment, grown 22 days. The procedure: MCF-7 cells (10^7) are added to 100 mm tissue culture dishes, allowed to adhere for 24 hours and then treated with either MDL 101,906 or ICI 164,384 for 24 hours. The cells are removed from the dishes with trypsin/EDTA, and washed twice by centrifugation. The cells were counted and 500 cells from each treatment group are added to triplicate wells of 6-well culture dishes. The cells are grown for 22 days. Colonies 1 mm diameter or greater are counted.

For the next assay, the target named is T2, estrogen receptors (Homo sapiens, UniProt P03372).
T2 construct: estrogen receptor extracted from MCF-7 human breast tumor cells; endogenous in cells; host or cells: MCF-7 human breast cancer cells (nuclear extract, cytosol or whole cell extract)
T2 sequence (P03372 1-595): T1 sequence (P03372 1-595)
Briefly: Quantification of estrogen receptors in nuclear and whole cell extracts (ER-EIA monoclonal kit), Table 1. The assay is classed as cell-based, human (MCF-7 human breast cancer cells). The note with it: estrogen receptors in nuclear extracts. The procedure:
as §1
Whole cell extracts of tumor cells are prepared by the method of Reese and Katzenellenbogen, Nuc. Acids Res., 19: 6595-6602 (1991), with some modifications. Cell monolayers are rinsed once with HBSS, then scraped into HBSS and sedimented by centrifugation (5 min., 250×g). After resuspending in 1 mL HBSS, the cells are again sedimented at 250×g for 5 min at 4° C. The cell pellet is resuspended in lysis/extract buffer containing 20 mM Tris, pH 7.5, 10% glycerol (v/v), 0.5M sodium chloride and 0.5% NP-40 (v/v) and incubated on ice for 25 minutes, then the supernatants are dialyzed against 25 mM HEPES, pH 7.8, 10% glycerol (v/v), 0.5 mM dithiothreitol and 50 mM potassium chloride for 2 hours at 4° C. Both the lysis/extraction and the dialysis buffers contain protease inhibitors which included 0.5 mM phenylmethylsulfonylfluoride, 0.05 mg/mL leupeptin, 0.05 mg/mL aprotinin, 0.00-25 mg/mL pepstatin, and 0.005 mg/mL antipain. Dialyzed whole cell extracts are stored in aliquots at -80° C. until used.
The protein concentration for nucleus and cytosol fractions are determined with a BIO-RAD kit, according to the manufacturer's instructions.
Estrogen receptor levels in nuclear and whole cell extracts of tumor cells were quanitated using the ER-EIA monoclonal kit manufactured by Abbott Laboratories (Diagnostic Division) according to the kit instructions.
receptors in nuclear extracts.
.dagger.WCE refers to IC50 value for estrogen receptors in whole cel
A slash dividing two numbers indicates the results of two separate

The target of the next assay is T3, MCF-7 estrogen receptor (Homo sapiens, UniProt P03372).
T3 construct: estrogen receptor extracted from MCF-7 human breast tumor cells; endogenous in cells; host or cells: MCF-7 human breast cancer cells (nuclear extract, cytosol or whole cell extract)
T3 sequence (P03372 1-595): T1 sequence (P03372 1-595)
Briefly: Competitive binding assay, Relative Binding Affinities on binding of estradiol to MCF-7 estrogen receptor. The procedure:
Briefly, RBAs are determined from competitive binding assays with several concentrations of estradiol (E2) with and without test compound. After 16-18 hours of incubation at 4 degrees C., unbound [^3 H] E2 is separated from ER-bound [^3 H] E2. The IC50 is determined and the RBA is calculated as: […]

The test system of another assay is GAPDH mRNA. Briefly: GAPDH mRNA levels in treated MCF-7 human breast tumor cells (positive control probe).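 Also: Phosphoimager intensity of radioactive mRNA bands.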 The assay is classed as cell-based. The note with it: 30 μM, 24 hr. The procedure: After treatment with 30 μM drug for 24 hr, total RNA is isolated according to the guanidinium isothiocyanate method using an RNA preparation kit from 5 Prime-3 Prime, Inc., following the manufacturer's instructions. The RNA is separated by formaldehyde gel electrophoresis and transferred to a nylon membrane.

The mark [4] stands for this setting: read-out: integrated volume of shifted ERE oligo as percentage of control, given as % inhibition.

Usually IC50 stands for the midpoint of a concentration-inhibition curve. Consider `CCCCN(C)C(=O)CCCCCCCNC(=O)Cc1c(C)n(C(=O)c2ccc(Cl)cc2)c2ccc(O)cc12` [MDL 101,906, 8-[[5-Hydroxy-1-(4-chlorobenzoyl)-2-methyl-1H-indol-3-yl]-acetylamino]-octanoic acid methyl-butyl-amide], for which the IC50 in assay [1] came out at 3.8 µM; in assay [2], 8.5 µM; against estrogen receptors it was 19 µM; against estrogen receptors (second of two separate experiments (after the slash)) it was 8.6 µM. Further, the inhibition at 2 µM in assay [2] (setting [4]) worked out at 81%. In addition, the inhibition at 5 µM in assay [2] (setting [4]) amounted to 76%. The inhibition at 10 µM in assay [2] (setting [4]) was 46%. The inhibition at 20 µM in assay [2] (setting [4]) worked out at 38%. The “Colonies ± S.D.” value is reported as 30 ± 10 in assay [3] (10 μM), 27 ± 5 in assay [3] (20 μM) and 12 ± 2 in assay [3] (50 μM). The activity at 10 µM in assay [3] (Homo sapiens, MCF7, 528 h, 10 μM, read-out: Colonies, % Control) was 91%. Besides, the activity at 20 µM in assay [3] (Homo sapiens, MCF7, 528 h, 20 μM, read-out: Colonies, % Control) came out at 82%. Further, the activity at 50 µM in assay [3] (Homo sapiens, MCF7, 528 h, 50 μM, read-out: Colonies, % Control) stood at 36%. The “inhibition of estradiol binding to MCF-7 ER” value on MCF-7 estrogen receptor (doses of 100 or 200 nM) is recorded as “did not significantly inhibit”; at MCF-7 estrogen receptor (typically, at doses of 100 or 200 nM), “less than 10%”. Also, the “GAPDH mRNA band intensity” value is on record as 5,227 in the assay on GAPDH mRNA (replicate 1) and 5,077 in the assay on GAPDH mRNA (replicate 2).
